Here are results for 21 molecules from publication PMC9141920, “Identification and Characterization of Dipeptidyl Peptidase-IV Inhibitory Peptides from Oat Proteins” (Foods, 2022).

The target in experiment [1] is T1, human DPP-IV (Homo sapiens, UniProt P27487).
T1 construct: purchased Sigma-Aldrich
The experiment in a line: DPP-IV inhibitory activity assay with Gly-Pro-AMC as the substrate. The experiment is classed as biochemical. As to conditions: for IC50: peptides, Gly-Pro-AMC substrate. The method, then:
The DPP-IV inhibitory activity assay of the sample was performed using Gly-Pro-AMC as the substrate, as previously described. Briefly, 50 µL Gly-Pro-AMC (0.2 mM) was added to a 40 µL sample (dissolved in 100 mM HEPES buffer) and incubated for 10 min at 37 °C. The reaction was initiated by adding 10 µL DPP-IV enzyme solution (10 U/L). After being incubated for 60 min at 37 °C, the reaction was terminated by adding 100 µL sodium acetate buffer (1 M, pH 4.0). The fluorescence intensity of the mixture was measured with an excitation wavelength of 350 nm and an emission wavelength of 440 nm. The control group used the HEPES buffer instead of the sample. The blank group used the HEPES buffer instead of the sample and DPP-IV enzyme solution. The DPP-IV inhibitory activity of the sample was calculated as follows:(2) DPP-IV inhibitory activity (%)=(Ac− Ab) − (As−Ab)/(Ac−Ab)×100% where As, Ac, and Ab are the intensity of the fluorescence of the sample, control, and blank groups, respectively. The half-maximal inhibitory concentration (IC50) of the sample was calculated according to the DPP-IV inhibition activity against the concentrations of the sample. In addition, the type of inhibition of the sample was obtained from the Lineweaver–Burk equation and double reciprocal plots.

Experiment [2] has as its system DPP-IV. As to conditions: cited from earlier work; for Inhibition mode on DPP-IV: similar results reported.
Experiment [3] relates to DPP-IV. Also on record: method as in PMID 6427168. As to conditions: Gly-Pro-pNA as the substrate; read-out: DPP-IV inhibition IC50; cited from earlier work.
[4] abbreviates: Ruditapes Philippinarum protein-derived peptides.
[5] abbreviates: camel milk protein-derived peptides.
[6] abbreviates: Chlorella Vulgaris protein-derived peptides.
Where [7] appears, read: wheat-derived peptides, read-out: DPP-IV inhibition IC50.

Like-named read-outs stand apart in the source and are kept apart here. Where a SMILES comes first, the peptide text is derived from it.

T1 sequence (P27487 whole entry): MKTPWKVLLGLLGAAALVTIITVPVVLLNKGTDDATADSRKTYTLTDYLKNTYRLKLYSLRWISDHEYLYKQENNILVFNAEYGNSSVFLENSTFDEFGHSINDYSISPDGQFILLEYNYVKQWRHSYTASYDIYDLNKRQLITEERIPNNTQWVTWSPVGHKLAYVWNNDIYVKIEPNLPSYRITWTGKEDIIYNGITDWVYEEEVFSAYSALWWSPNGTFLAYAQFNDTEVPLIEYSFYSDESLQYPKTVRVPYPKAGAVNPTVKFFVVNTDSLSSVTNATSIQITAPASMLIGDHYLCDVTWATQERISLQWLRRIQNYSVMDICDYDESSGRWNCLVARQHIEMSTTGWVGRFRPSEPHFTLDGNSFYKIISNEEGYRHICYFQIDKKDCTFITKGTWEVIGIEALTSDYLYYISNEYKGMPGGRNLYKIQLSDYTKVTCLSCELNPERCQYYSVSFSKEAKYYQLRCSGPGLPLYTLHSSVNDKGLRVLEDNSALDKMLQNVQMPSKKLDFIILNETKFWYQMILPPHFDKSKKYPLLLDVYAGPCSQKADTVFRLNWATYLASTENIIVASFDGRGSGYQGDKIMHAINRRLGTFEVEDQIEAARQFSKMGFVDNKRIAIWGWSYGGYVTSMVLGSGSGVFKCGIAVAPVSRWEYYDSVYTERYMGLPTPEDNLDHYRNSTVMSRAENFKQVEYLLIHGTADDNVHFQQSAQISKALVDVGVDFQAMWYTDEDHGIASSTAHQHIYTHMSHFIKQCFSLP

By inhibition is commonly meant the relative decrease from the control value, in per cent. Read a high inhibition as a response far below the control. As usually defined, the IC50 is the concentration needed to halve the response being measured. In experiment [1], `CC(C)[C@H](NC(=O)[C@H](C)NC(=O)[C@H](C)N)C(=O)N1CCC[C@H]1C(=O)N[C@@H](Cc1ccccc1)C(=O)O` [AAVPF] (H-AAVPF-OH) yielded an inhibition at 25 µM of 5.42 ± 3.61%, an inhibition at 50 µM of 16.7 ± 3.38%, an inhibition at 100 µM of 28.9 ± 2.62% and an inhibition at 200 µM of 39.9 ± 2.79%. In addition, in experiment [1], testing at 400 µM gave an inhibition of 59.8 ± 2.84% and half-maximal inhibition (IC50) required 282 ± 27.2 µM.
In experiment [1], `CC[C@H](C)[C@H](N)C(=O)N1CCC[C@H]1C(=O)N[C@@H](CCC(N)=O)C(=O)N[C@@H](Cc1c[nH]cn1)C(=O)N[C@@H](Cc1ccc(O)cc1)C(=O)O` [IPQHY] (H-IPQHY-OH) showed an inhibition at 25 µM of 49.4 ± 1.19%, an inhibition at 50 µM of 66.9 ± 1.46%, an inhibition at 100 µM of 82.67 ± 0.74% and an inhibition at 200 µM of 91 ± 1.2%. Further, in experiment [1], the inhibition at 400 µM is 95.84 ± 0.52% and 25.7 ± 1.06 µM corresponded to half-maximal inhibition (IC50).
In the case of `CC(C)C[C@H](N)C(=O)N1CCC[C@H]1C(=O)N[C@@H](CCC(N)=O)C(=O)N[C@@H](Cc1c[nH]cn1)C(=O)N[C@@H](Cc1ccc(O)cc1)C(=O)O` [LPQHY] (H-LPQHY-OH), in experiment [1], the inhibition at 25 µM is 21.3 ± 4.86%, at 50 µM the inhibition was 37.4 ± 4.24%, the inhibition at 100 µM amounted to 62.6 ± 1.21% and the inhibition at 200 µM was found to be 80.4 ± 4.84%. The same molecule had an inhibition at 400 µM in experiment [1] of 89.87 ± 0.41%.
As for `CC(C)C[C@H](N)C(=O)N1CCC[C@H]1C(=O)N[C@@H](CCC(N)=O)C(=O)N[C@@H](Cc1ccc(O)cc1)C(=O)N[C@@H](CCC(N)=O)C(=O)N[C@@H](C)C(=O)O` [LPQYQA] (H-LPQYQA-OH), in experiment [1], the inhibition at 200 µM was determined as 5.59 ± 3.1% and at 400 µM the inhibition was 29.8 ± 2.5%.
In experiment [1], `CSCC[C@H](N)C(=O)N[C@@H](C)C(=O)NCC(=O)N[C@@H](CCC(N)=O)C(=O)N[C@H](C(=O)N[C@@H](Cc1ccccc1)C(=O)O)C(C)C` [MAGQVF] (H-MAGQVF-OH) gave an inhibition at 25 µM of 10.4 ± 4.35%, an inhibition at 50 µM of 13 ± 2.11%, an inhibition at 100 µM of 26.7 ± 3.49% and an inhibition at 200 µM of 49.4 ± 1.9%. Moreover, in experiment [1], the inhibition at 400 µM stood at 67.5 ± 2.97% and the IC50 is 223 ± 6.16 µM.
Take `O=C(N[C@@H](CS)C(=O)N1CCC[C@H]1C(=O)O)[C@H](Cc1c[nH]cn1)NC(=O)[C@@H]1CCCN1C(=O)[C@@H]1CCCN1` [PPHCP] (H-PPHCP-OH; N-terminus and C-terminus assumed): in experiment [1], testing at 25 µM gave an inhibition of 4.42 ± 3.95%, at 50 µM the inhibition was 29.9 ± 1.84%, at 100 µM the inhibition was 58.9 ± 1.1% and the inhibition at 200 µM worked out at 81.35 ± 0.48%. The inhibition at 400 µM in experiment [1] was determined as 89.29 ± 0.45%.
In experiment [1], `CC(C)[C@H](N)C(=O)N[C@@H](C)C(=O)N[C@@H](CCC(=O)O)C(=O)N[C@H](C(=O)N1CCC[C@H]1C(=O)N[C@@H](Cc1ccccc1)C(=O)O)C(C)C` [VAEVPF] (H-VAEVPF-OH) had an inhibition at 25 µM of 33 ± 12.3%, an inhibition at 50 µM of 43.4 ± 2.27%, an inhibition at 100 µM of 58.2 ± 3.86% and an inhibition at 200 µM of 74.2 ± 2.32%. In experiment [1], this molecule gave an inhibition at 400 µM of 86.2 ± 0.96% and a concentration for half-maximal inhibition (IC50) of 65.3 ± 13.1 µM.
In experiment [1], `CC(C)[C@H](N)C(=O)N[C@@H](C)C(=O)N[C@H](C(=O)N[C@H](C(=O)N1CCC[C@H]1C(=O)N[C@@H](Cc1ccccc1)C(=O)O)C(C)C)C(C)C` [VAVVPF] (H-VAVVPF-OH) registered an inhibition at 25 µM of 42.9 ± 2.31%, an inhibition at 50 µM of 61.5 ± 5.19%, an inhibition at 100 µM of 66 ± 4.07% and an inhibition at 200 µM of 78.9 ± 1.23%. In experiment [1], the inhibition at 400 µM was 87.99 ± 0.39% and the IC50 came to 33.9 ± 4.83 µM.
In experiment [1], `CC(C)C[C@H](NC(=O)[C@@H]1CCCN1C(=O)[C@@H](N)C(C)C)C(=O)NCC(=O)NCC(=O)N[C@@H](Cc1ccccc1)C(=O)O` [VPLGGF] (H-VPLGGF-OH) had an inhibition at 25 µM of 34 ± 0.76%, an inhibition at 50 µM of 55.9 ± 1.86%, an inhibition at 100 µM of 74.4 ± 0.88% and an inhibition at 200 µM of 86.7 ± 1.1%. In experiment [1], this molecule had an inhibition at 400 µM of 92.67 ± 0.36% and an IC50 of 40.2 ± 0.95 µM.
In experiment [1], `CC(C)[C@H](N)C(=O)N1CCC[C@H]1C(=O)N[C@@H](CCC(N)=O)C(=O)N[C@@H](Cc1c[nH]cn1)C(=O)N[C@@H](Cc1ccc(O)cc1)C(=O)O` [VPQHY] (H-VPQHY-OH) had an inhibition at 25 µM of 40.5 ± 4.59%, an inhibition at 50 µM of 69.3 ± 4.66%, an inhibition at 100 µM of 78.8 ± 2.17% and an inhibition at 200 µM of 87.25 ± 0.25%. In experiment [1], this molecule registered an inhibition at 400 µM of 94.3 ± 0.28% and an IC50 of 30.8 ± 1.93 µM.
For the molecule “FAGDDAPR [Ruditapes Philippinarum protein-derived peptide]”, the “Inhibition mode on DPP-IV” value in experiment [2] (setting [4]) was “mixed-type inhibitors”.
As for “FAGDDAPRA [Ruditapes Philippinarum protein-derived peptide]”, the “Inhibition mode on DPP-IV” value in experiment [2] (setting [4]) is on record as “mixed-type inhibitors”.
As to FLMESH, the “Inhibition mode on DPP-IV” value in experiment [2] (setting [4]) is reported as “mixed-type inhibitors”.
Turning to “ILDKVGINY [camel milk protein-derived peptide]”, in experiment [2] (setting [5]), the “Inhibition mode on DPP-IV” value is reported as “mixed-type inhibitors”.
For the molecule IPR, the “Inhibition mode on DPP-IV” value in experiment [2] (setting [6]) is recorded as “mixed-type inhibitors”.
In the case of LQAFEPLR, the IC50 in experiment [2] (peptide from tryptic hydrolysate of oat globulin, read-out: DPP-IV inhibitory activity IC50) is 104 µM.
With MPF, the IC50 in experiment [2] (setting [7]) was ~500 µM.
For SPVVPF, in experiment [2] (setting [5]), the “Inhibition mode on DPP-IV” value is on record as “mixed-type inhibitors”.
VAVPV: the IC50 in experiment [2] (setting [7]) is ~500 µM.
Turning to VPL, the IC50 in experiment [3] is 16.8 µM.
As for VPW, the “Inhibition mode on DPP-IV” value in experiment [2] (setting [6]) is on record as “mixed-type inhibitors”.
